Patent publication US20240285571A1, “METHODS OF TREATING BONE INFECTIONS” (MICROBION CORPORATION, priority 2020, published 2024)
Values after ≈ are worked out from the molar mass of the structure shown. Where two headings read alike, the source gives them in different places.

How the values were obtained:
Type in all cases: cell-based
[1] = tested on: relevant ATCC QC organisms; assay: Broth microdilution MIC, QC (Example 6); conditions: read-out: MIC
Procedure, shortened: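 QC strains were tested per CLSI broth microdilution in cation-adjusted Mueller Hinton broth, with Ca2+ supplemented for daptomycin, at about 5×10^5 CFU/mL. Incubation was at 35° C for 16–20 hr, or 24 hr for vancomycin against S. aureus. The MIC was the lowest concentration inhibiting visible growth.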

Acinetobacter baumannii = assay: Broth microdilution MIC (Example 6); conditions: Acinetobacter baumannii, read-out: MIC
Procedure, shortened: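 CLSI broth microdilution in cation-adjusted Mueller Hinton broth, test agents 0.06-64 μg/mL from DMSO stocks, inoculum approx. 5×10^5 CFU/mL. Incubation 35° C for 16–20 hr; MIC taken as lowest concentration inhibiting visible growth.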

Pseudomonas aeruginosa = assay: Broth microdilution MIC (Example 6); conditions: Pseudomonas aeruginosa, read-out: MIC
Procedure: (§1) Test Compounds: The test agents BisEDT (MB-1-B3; Lot No. ED268-1-11-01), MB-2B, and MB-6 were stored at room temperature, in the dark, until assayed.
(§2) For testing daptomycin, calcium was supplemented with […] Ca^2+, resulting in a final concentration of […] Ca^2+ (2, 3).
(§3) MIC Assay Procedure: MIC values were determined using a broth microdilution procedure described by CLSI (2, 3).
(§4) The Biomek 2000 was then used to make 2-fold serial dilutions in the mother plates from column 1 through column 11. The wells of column 12 contained no drug and served as the organism growth control wells for the assay.
(§5) The test panels were prepared on the Biomek FX instrument which transferred 2 μL of drug solution from each well of a mother plate to the corresponding well of each daughter plate in a single step.
(§6) A standardized inoculum of each test organism was prepared per CLSI methods to equal a 0.5 McFarland standard, followed by a dilution of 1:20. The plates were then inoculated with 10 μL of the diluted inoculum using the Biomek 2000 from low to high drug concentration resulting in a final concentration of approximately 5×10^5 CFU/mL.
(§7) Plates were stacked 3-4 high, covered with a lid on the top plate, placed into plastic bags, and incubated at 35° C. for 16 to 20 hr (vancomycin was read for S. aureus after 24 hr incubation time). The MIC was recorded as the lowest concentration of drug that inhibited visible growth of the organism.

Escherichia coli = assay: Broth microdilution MIC (Example 6); conditions: Escherichia coli, read-out: MIC
Procedure: as §1, §2, §3, §4, §5, §6, §7

Klebsiella pneumoniae = assay: Broth microdilution MIC (Example 6); conditions: Klebsiella pneumoniae, read-out: MIC
Procedure: as §1, §2, §3, §4, §5, §6, §7

CC(C)(O/N=C(\C(=O)N[C@@H]1C(=O)N2C(C(=O)[O-])=C(C[n+]3ccccc3)CS[C@H]12)c1csc(N)n1)C(=O)O [Ceftazidime]
MIC ([1]; Escherichia coli, ATCC25922, E. coli ATCC 25922): 0.25 µg/mL | MIC ([1]; Escherichia coli, ATCC35218, E. coli ATCC 35218): 0.12 µg/mL | MIC ([1]; Klebsiella pneumoniae, ATCCBAA1705, K. pneumoniae ATCC BAA-1705): > 64 µg/mL | MIC ([1]; Pseudomonas aeruginosa, ATCC27853, P. aeruginosa ATCC 27853): 2 µg/mL | MIC (Acinetobacter baumannii; A. baumannii isolate CDC 273, β-lactamase type ESBL/OXA): 64 µg/mL | MIC (Acinetobacter baumannii; A. baumannii isolate CDC 274, β-lactamase type ESBL/OXA): > 64 µg/mL | MIC (Acinetobacter baumannii; A. baumannii isolate CDC 275, β-lactamase type ESBL/OXA): > 64 µg/mL | MIC (Acinetobacter baumannii; A. baumannii isolate CDC 277, β-lactamase type ESBL/OXA): > 64 µg/mL | MIC (Acinetobacter baumannii; A. baumannii isolate CDC 284, β-lactamase type ESBL/OXA): 64 µg/mL | MIC (Acinetobacter baumannii; A. baumannii isolate CDC 307, β-lactamase type OXA): 64 µg/mL | MIC (Acinetobacter baumannii; A. baumannii isolate CDC 308, β-lactamase type ESBL/OXA): 64 µg/mL | MIC (Acinetobacter baumannii; A. baumannii isolate CDC 311, β-lactamase type OXA): > 64 µg/mL | MIC (Acinetobacter baumannii; A. baumannii isolate CDC 312, β-lactamase type OXA): > 64 µg/mL | MIC (Acinetobacter baumannii; A. baumannii isolate CDC 313, β-lactamase type ESBL/OXA): > 64 µg/mL | MIC (Acinetobacter baumannii; NCTC13304, A. baumannii isolate NCTC 13304, β-lactamase type OXA): > 64 µg/mL | MIC (Pseudomonas aeruginosa; P. aeruginosa isolate CDC 230, β-lactamase type VIM/OXA): 64 µg/mL (≈ 117 µM) | MIC (Pseudomonas aeruginosa; P. aeruginosa isolate CDC 231, β-lactamase type KPC/OXA): > 64 µg/mL | MIC (Pseudomonas aeruginosa; P. aeruginosa isolate CDC 241, β-lactamase type IMP/OXA): > 64 µg/mL | MIC (Pseudomonas aeruginosa; P. aeruginosa isolate CDC 246, β-lactamase type NDM/OXA): > 64 µg/mL | MIC (Pseudomonas aeruginosa; P. aeruginosa isolate CDC 250, β-lactamase type NDM/OXA): > 64 µg/mL | MIC (Pseudomonas aeruginosa; P. aeruginosa isolate CDC 356, β-lactamase type KPC): 64 µg/mL (≈ 117 µM) | MIC (Pseudomonas aeruginosa; P. aeruginosa isolate CDC 439, β-lactamase type IMP): > 64 µg/mL | MIC (Pseudomonas aeruginosa; P. aeruginosa isolate CDC 444, β-lactamase type VIM): 32 µg/mL (≈ 58.5 µM) | MIC (Pseudomonas aeruginosa; P. aeruginosa isolate CDC 457, β-lactamase type VIM): > 64 µg/mL | MIC (Pseudomonas aeruginosa; P. aeruginosa isolate CDC 516, β-lactamase type KPC/AmpC): 64 µg/mL (≈ 117 µM) | MIC (Pseudomonas aeruginosa; P. aeruginosa isolate CDC 518, β-lactamase type KPC/AmpC): 32 µg/mL (≈ 58.5 µM) | MIC (Escherichia coli; ATCC35218, E. coli ATCC 35218, ESBL): 0.12 µg/mL (≈ 0.22 µM) | MIC (Escherichia coli; ATCCBAA2471, E. coli ATCC BAA-2471, NDM): > 64 µg/mL | MIC (Escherichia coli; E. coli CDC 114, ESBL/KPC): > 64 µg/mL | MIC (Escherichia coli; E. coli CDC 118, ESBL/NDM): > 64 µg/mL | MIC (Escherichia coli; E. coli CDC 435, NDM): > 64 µg/mL | MIC (Escherichia coli; E. coli CDC 451, KPC): 64 µg/mL (≈ 117 µM) | MIC (Escherichia coli; E. coli CDC 503, ESBL/NDM): > 64 µg/mL | MIC (Escherichia coli; E. coli MMX 5745, KPC): 32 µg/mL (≈ 58.5 µM) | MIC (Escherichia coli; E. coli MMX 5755, ESBL): > 64 µg/mL | MIC (Escherichia coli; E. coli MMX 5756, ESBL): > 64 µg/mL | MIC (Escherichia coli; E. coli MMX 5758, ESBL): 16 µg/mL (≈ 29.3 µM) | MIC (Klebsiella pneumoniae; ATCCBAA1705, K. pneumoniae ATCC BAA-1705, ESBL/KPC): > 64 µg/mL | MIC (Klebsiella pneumoniae; K. pneumoniae CDC 112, KPC): > 64 µg/mL | MIC (Klebsiella pneumoniae; K. pneumoniae CDC 113, ESBL/KPC): > 64 µg/mL | MIC (Klebsiella pneumoniae; K. pneumoniae CDC 115, ESBL/KPC): > 64 µg/mL | MIC (Klebsiella pneumoniae; K. pneumoniae CDC 120, ESBL/KPC): > 64 µg/mL | MIC (Klebsiella pneumoniae; K. pneumoniae CDC 126, ESBL/KPC): 4 µg/mL (≈ 7.32 µM) | MIC (Klebsiella pneumoniae; K. pneumoniae CDC 129, ESBL/KPC): > 64 µg/mL | MIC (Klebsiella pneumoniae; K. pneumoniae CDC 135, ESBL/VIM): > 64 µg/mL | MIC (Klebsiella pneumoniae; K. pneumoniae CDC 138, ESBL/NDM): > 64 µg/mL | MIC (Klebsiella pneumoniae; K. pneumoniae CDC 158, ESBL/NDM/OXA): > 64 µg/mL | MIC (Klebsiella pneumoniae; K. pneumoniae MMX 9029, ESBL): 4 µg/mL (≈ 7.32 µM)
